Measurements published in US10738119B2, “Combination therapy for hepatocellular carcinoma” (Health Research, Inc., priority 2014, dated 2020).
Entries after “also recorded” stand apart in the source; their conditions may differ.

Experiments:
Assay type in all cases: in vivo, human
IFN-γ = experiment: Plasma cytokine ELISA pre and post sorafenib treatment: IFN-γ; settings: pre vs post sorafenib
Method: (§1) Plasma isolated during PBMC separation was assayed to quantify the level of IFN-γ, IL-10, and TGF-β1 using specific ELISA kits according to the manufacturer's instructions (eBioscience).
(§2) Plasma levels of both pro-inflammatory and immunosuppressive cytokines were determined by ELISA.
(§3) This study was approved by institutional review board of Roswell Park Cancer Institute (RPCI), Buffalo, N.Y. and informed consent was obtained from all participants. Heparinized peripheral blood samples were obtained from HCC patients before the initiation of sorafenib treatment and after four weeks or more of oral sorafenib treatment, through Data Bank and Biorepository at RPCI.
(§4) PBMCs were isolated immediately by Ficoll-Paque Plus density gradient centrifugation and cryopreserved. Plasma was isolated and stored at −80° C. and used for measurement of immunosuppressive and immunostimulatory cytokines as described previously. Frequency, phenotype and functionality of immune cells after blocking immune check points were analyzed by multi-parameter flow cytometry.

IL-1β = experiment: Plasma cytokine ELISA pre and post sorafenib treatment: IL-1β; settings: pre vs post sorafenib, P<0.11, FIG. 17A
Method: as §1, §2, §3, §4

IL-10 = experiment: Plasma cytokine ELISA pre and post sorafenib treatment: IL-10; settings: pre vs post sorafenib
Method: as §1, §2, §3, §4

HCC patients [1] = experiment: Overall survival of HCC patients stratified by greater or smaller decrease in immune parameters after sorafenib treatment
Method: FIGS. 15A-15D. […] Overall survival of patients was calculated based on the status of (FIG. 15A) absolute numbers of CD4^+PD-1^+ T cells (FIG. 15B) CD8^+PD-1^+ T cells (FIG. 15C) expression levels of PD-1 (MFI) on CD8^+ T cells (FIG. 15D) absolute numbers of CD4^+Foxp3^+ T cells.
FIGS. 18A-18R. […] Overall survival of patients was calculated based on the status of (FIG. 18A) frequency of CD4^+Foxp3^+ Tregs (FIG. 18B) frequency of GARP^+Foxp3^+ Tregs (FIG. 18C) expression levels of GARP (MFI) on Foxp3^+ Tregs (FIG. 18D) frequency of CTLA-4^+Foxp3^+ Tregs (FIG. 18E) absolute number of CD4^+Foxp3^+ Tregs (FIG. 18F) expression levels of CTLA-4 (MFI) on Foxp3^+ Tregs (FIG. 18G) frequency of CD11b^+CD33^+ MDSC (FIG. 18H) absolute number of CD11b^+CD33^+ MDSC (FIG. 18I) frequency of CD4^+PD-1^+ T cells (FIG. 18J) expression levels of PD-1 (MFI) on CD4^+ T cells (FIG. 18K) frequency of Foxp3^+PD-1^+ T cells (FIG. 18L) absolute number of Foxp3^+PD-1^+ T cells (FIG. 18M) expression levels of PD-1 (MFI) on Foxp3^+CD4^+ T cells (FIG. 18N) frequency of CD8^+PD-1^+ T cells (FIG. 18O) IL-10 (FIG. 18P) TGF-β1 (FIG. 18Q) IFN-γ (FIG. 18R) IL-1β.
as §2, §3

CD11b+CD33+ MDSC = experiment: Multi-parametric flow cytometry of MDSC in PBMC of HCC patients pre and post sorafenib treatment; settings: pre vs post sorafenib
Method: MDSC in the peripheral blood were detected using FITC anti-CD11b (eBioscience), PE-Cy5 anti-CD33, APC anti-CD14, V450 anti-HLA-DR (BD Biosciences).
as §2, §3, §4

PD-1+ T cells = experiment: Multi-parametric flow cytometry of PD-1+ T cells in PBMC of HCC patients pre and post sorafenib treatment; settings: pre vs post sorafenib
Method: (§5) FACS analysis was performed to measure peripheral blood Treg frequency using APC-H7 anti-CD3, V450 anti-CD4, PE anti-CD127, PE-Cy5 anti-CTLA-4 (BD Biosciences) and PE-Cy7 anti-PD-1, Alexa488 anti-Foxp3 (Biolegend). Detection of surface GARP levels was achieved by using mouse anti-human GARP (Enzo Life Sciences) followed by staining with PE F(ab′)2 goat anti-mouse IgG (Jackson ImmunoResearch Laboratories). Cells were incubated with normal mouse IgG for 10 min prior to surface and intracellular staining. Intracellular analysis for Foxp3 and CTLA-4 was performed after fixation and permeabilization of cells using intracellular staining kit (eBioscience) according to manufacturer's instructions. All samples were acquired on LSRII flow cytometer (BD Biosciences) and analyzed using Flowjo Model Fit (Tree Star).
as §2
This study was approved by institutional review board of Roswell Park Cancer Institute (RPCI), Buffalo, N.Y. and informed consent was obtained from all participants.
as §4

TGF-β1 = experiment: Plasma cytokine ELISA pre and post sorafenib treatment: TGF-β1; settings: pre vs post sorafenib
Method: as §1, §2, §3, §4

Foxp3+ Tregs = experiment: Multi-parametric flow cytometry of Tregs in PBMC of HCC patients pre and post sorafenib treatment; settings: pre vs post sorafenib
Method: as §5, §2, §3, §4

HCC patients [2] = experiment: PD-1 status and survival of HCC patients treated with sorafenib (Example 2)
Excerpt: The individual data points in the figures represent each patient.

HCC patients [3] = experiment: Overall survival of HCC patients stratified by greater or smaller decrease in immune parameters after sorafenib treatment; settings: log-rank P<0.30, FIG. 18E

How did the “95% CI of change in levels of IFN-γ after sorafenib treatment” value (IFN-γ; FIG. 17D) turn out when `CNC(=O)c1cc(Oc2ccc(NC(=O)Nc3ccc(Cl)c(C(F)(F)F)c3)cc2)ccn1` [sorafenib] was run?
Its value is −1.07 to 23.64.

And the “plasma levels of IFN-γ after sorafenib treatment” value (IFN-γ; P<0.04, FIG. 17D)?
The value was “concomitant increase; also recorded: significantly increased”.

What about the “plasma levels of IL-1β after sorafenib treatment” value (IL-1β) of the same compound?
Its value is “did not show any significant decrease”.

And the “95% CI of change in levels of IL-10 after sorafenib treatment” value (IL-10; FIG. 17B)?
The value was −63.30 to −4.9.

What about the “plasma levels of IL-10 after sorafenib treatment” value (IL-10; P<0.03, FIG. 17B) of the same compound?
Its value is “significant decrease”.

And the “overall survival, greater decrease in PD-1 expression levels on CD4+ T cells after sorafenib” value (HCC patients [1]; AFT models, AFT β P<0.04)?
The value was “better overall survival benefit”.

And the “overall survival, greater decrease in absolute number of MDSC after sorafenib” value (HCC patients [1]; AFT models, AFT β P<0.05)?
The value was “better prognosis; also recorded: significant correlation with overall survival”.

What about the “overall survival, greater decrease in percentage of MDSC after sorafenib” value (HCC patients [1]; AFT models, AFT β P<0.05) of the same compound?
The value was “better prognosis; also recorded: significant correlation with overall survival”.

And the “overall survival vs absolute numbers of Foxp3+ Tregs post-sorafenib treatment” value (HCC patients [1]; log-rank P<0.01, FIG. 15D)?
The value was “statistically significant improvement in overall survival; also recorded: significant correlation with overall survival”.

What about the “overall survival, greater vs smaller decrease in absolute number of PD-1+CD4+ T cells after sorafenib” value (HCC patients [1]; log-rank P<0.04, FIG. 15A) of the same compound?
Its value is “significant interaction term; also recorded: significantly improved overall survival rate”.

What about the “overall survival, greater vs smaller decrease in absolute number of CD8+PD-1+ T cells after sorafenib” value (HCC patients [1]; log-rank P<0.04, FIG. 15B) of the same compound?
The value was “significant interaction term; also recorded: significant improvement in overall survival”.

And the “overall survival, greater vs smaller decrease in PD-1 expression levels on CD8+ T cells after sorafenib” value (HCC patients [1]; log-rank P<0.04, FIG. 15C)?
Its value is “significant improvement in overall survival”.

What about the “overall survival, greater vs smaller decrease in frequency of CTLA-4+ Tregs after sorafenib” value (HCC patients [1]; log-rank P<0.51, FIG. 18D) of the same compound?
The value was “no significant differences in the overall survival”.

And the “overall survival vs changes in levels of TGF-β1 after sorafenib” value (HCC patients [1]; log-rank P<0.61, FIG. 18P)?
Its value is “none of these cytokines showed any significant association; also recorded: non-significant interaction term”.

And the “overall survival vs changes in levels of IFN-γ after sorafenib” value (HCC patients [1]; log-rank P<0.62, FIG. 18Q)?
The value was “none of these cytokines showed any significant association; also recorded: non-significant interaction term”.

What about the “overall survival vs changes in levels of IL-10 after sorafenib” value (HCC patients [1]; log-rank P<0.73, FIG. 18O) of the same compound?
Its value is “none of these cytokines showed any significant association; also recorded: non-significant interaction term”.

What about the “overall survival vs changes in levels of IL-1β after sorafenib” value (HCC patients [1]; log-rank P<0.92, FIG. 18R) of the same compound?
The value was “non-significant interaction term”.

What about the “frequency of CD11b+CD33+ MDSC after sorafenib treatment” value (CD11b+CD33+ MDSC; P<0.61, FIG. 16E) of the same compound?
Its value is “did not significantly impact; also recorded: did not have any significant influence”.

And the “absolute number of CD11b+CD33+ MDSC after sorafenib treatment” value (CD11b+CD33+ MDSC; P<0.92, FIG. 16F)?
Its value is “did not significantly impact; also recorded: did not have any significant influence”.

What about the “95% CI of change in expression levels (MFI) of PD-1 on CD4+ T cells after sorafenib treatment” value (PD-1+ T cells; FIG. 14B) of the same compound?
Its value is −56.51 to −12.09 MFI.

What about the “expression levels (MFI) of PD-1 on CD4+ T cells after sorafenib treatment” value (PD-1+ T cells; P<0.02, FIG. 14B) of the same compound?
Its value is “significantly decreased”.

What about the “absolute number of CD4+Foxp3+PD-1+ T cells after sorafenib treatment” value (PD-1+ T cells; P<0.04, FIG. 14C) of the same compound?
The value was “significantly decreased”.

And the “absolute number of CD8+PD-1+ T cells after sorafenib treatment” value (PD-1+ T cells; P<0.15, FIG. 14E)?
Its value is “did not show any significant decrease”.

And the “frequency of CD8+PD-1+ T cells after sorafenib treatment” value (PD-1+ T cells; P<0.20, FIG. 14D)?
The value was “did not show any significant decrease”.

And the “level of expression of PD-1 on CD8+ T cells (MFI) after sorafenib treatment” value (PD-1+ T cells; P<0.31, FIG. 14F)?
The value was “did not show any significant decrease”.

What about the “frequency of CD4+PD-1+ T cell after sorafenib treatment” value (PD-1+ T cells; n=19, P<0.01, FIG. 14A) of the same compound?
Its value is “significantly reduced”.

And the “95% CI of change in levels of TGF-β1 after sorafenib treatment” value (TGF-β1; FIG. 17C)?
Its value is −151.50 to −48.55.

And the “plasma levels of TGF-β1 after sorafenib treatment” value (TGF-β1; P<0.03, FIG. 17C)?
Its value is “significant decrease”.

And the “95% CI of change in frequency of CD3+CD4+Foxp3+ Tregs after sorafenib treatment” value (Foxp3+ Tregs; FIG. 16A)?
The value was −0.44 to −1.16.

What about the “95% CI of change in absolute numbers of CD3+CD4+Foxp3+ Tregs after sorafenib treatment” value (Foxp3+ Tregs; FIG. 16B) of the same compound?
The value was −9.48 to −3.55.

What about the “95% CI of change in frequency of Foxp3+CTLA-4+ Tregs after sorafenib treatment” value (Foxp3+ Tregs; FIG. 16C) of the same compound?
The value was −3.18 to −0.82.

And the “95% CI of change in absolute number of Foxp3+CTLA-4+ Tregs after sorafenib treatment” value (Foxp3+ Tregs; FIG. 16D)?
The value was −8.42 to −6.32.

And the “frequency of CD3+CD4+Foxp3+ Tregs after sorafenib treatment” value (Foxp3+ Tregs; P<0.02, FIG. 16A)?
Its value is “significant decrease”.

And the “frequency of Foxp3+CTLA-4+ Tregs after sorafenib treatment” value (Foxp3+ Tregs; P<0.02, FIG. 16C)?
The value was “Marked reduction”.

And the “absolute numbers of CD3+CD4+Foxp3+ Tregs after sorafenib treatment” value (Foxp3+ Tregs; P<0.05, FIG. 16B)?
Its value is “significant decrease”.

What about the “absolute number of Foxp3+CTLA-4+ Tregs after sorafenib treatment” value (Foxp3+ Tregs; P<0.05, FIG. 16D) of the same compound?
The value was “Marked reduction”.

What about the mean survival time (HCC patients [2]; group where PD-1 was decreased) of the same compound?
Its mean survival time is 688 days.

What about the mean survival (HCC patients [2]; group which did not show a decrease in PD-1) of the same compound?
Its mean survival is 168 days.

And the “overall survival, greater vs smaller decrease in absolute number of CTLA-4+ Tregs after sorafenib” value (HCC patients [3])?
Its value is “no significant differences in the overall survival”.
